Laboratory results from ChEMBL document CHEMBL1158574, “Trichodermaketones A-D and 7-O-methylkoninginin D from the marine fungus Trichoderma koningii” (2010).

What was measured:
Staphylococcus aureus = experiment: Antibacterial activity against methicillin-resistant Staphylococcus aureus clinical isolate measured after overnight incubation at 37 degC; type: functional
Candida albicans = experiment: Antimicrobial activity against Candida albicans SC5314 measured after overnight incubation at 35 degC by broth microdilution assay; type: functional

## CCCCCC[C@H](O)[C@@H]1C[C@@H](OC)C2=C(O1)[C@H](O)CCC2=O
Staphylococcus aureus
  MIC: > 100 µg/mL

## CCCCCC[C@@H]1O[C@@H]2C3=C(O[C@@H]2[C@@H]1O)[C@H](O)CCC3=O [TRICHODERMAKETONE A]
Staphylococcus aureus
  MIC: > 100 µg/mL
Candida albicans
  MIC: > 125 µg/mL

## CCCCCC[C@H]1O[C@H]2C3=C(O[C@H]2[C@H]1O)[C@H](O)CCC3=O [TRICHODERMAKETONE B]
Staphylococcus aureus
  MIC: > 100 µg/mL

## CCCCCC/C=C/[C@@H]1CC2=C(O1)[C@H](O)CCC2=O [TRICHODERMAKETONE C]
Staphylococcus aureus
  MIC: > 100 µg/mL

## CCCCCC/C=C/[C@H]1CC2=C(O1)[C@H](O)CCC2=O [TRICHODERMAKETONE D]
Staphylococcus aureus
  MIC: > 100 µg/mL
